Assay results as given in patent US7029918B2, “Water-soluble derivatives of lipophilic drugs” (Roche Diagnostics Operations, Inc., priority 2002, dated 2006).
Several values for one entry are separate records, joined by “and”; a condition that tells them apart may be missing. Equal values may be shown once.

Assays:
[1] = cited from earlier work
[2] = Heat stress stability of urine standard solutions, ABUSCREEN ONLINE Benzodiazepines assay; details: for stability in urine by ONLINE assay: up to 4 weeks, 4° C. or 45° C., pH 6.4 or 7.4, 100 to 200 ng/mL
Protocol: (§1) Urine standard solutions were prepared using pooled, filtered, normal human urine containing 0.09 percent sodium azide. […] Each of the drug stock solutions was added analytically to the assigned aliquot of urine pool. Final drug concentrations in the solutions were determined by GC-MS analyses performed at ELSOHLY LABORATORIES (Oxford, MS).
(§2) The stability of the above standard solutions were evaluated using three different analytical technologies: (1) GCIMS (Gas Chromatography/Mass Spectrometry) analysis, (2) ABUSCREEN ONLINE Benzodiazepines Immunoassay, and (3) HPLC (High Pressure Liquid Chromatography) analysis.
The heat stress stability study of the water-soluble derivative 2 was evaluated using ABUSCREEN ONLINE Benzodiazepines assay. […] (in neutral and acidic negative urine pools, 2 concentrations for each urinary pH).

[3] = test system: antibody (competition with benzodiazepine-BSA conjugate 7); assay: Immunochromatographic assay of benzodiazepines (nitrocellulose test strip, competitive); format: binding
Protocol: In the absence of lipophilic drug in a sample being analyzed, the drug conjugate can bind to the antibody, and this binding can be measured. When a the lipophilic drug is present in the sample, the drug competes with the drug conjugate for binding to the antibody. Antibody that is bound to the liphophilic drug no longer contributes to the binding measurement. Lipophilic drug content is determined relative to the values obtained for known concentrations of the standard compound (Adler, F. L. J. Immunol. 1971, 106(6):1684–1685. See also Bates, M. Amer. Acad. Forensic Sci. 1991, 37(6):1000).
The benzodiazepine-BSA conjugate was prepared in a similar manner as described in Example 6, but treating with BSA rather than BTG. The product was prepared and stored in 100 mM potassium phosphate as 10 mg/mL solution with 0.05% sodium azide as preservative Example 9-Immunochromatographic assay of benzodiazepines using water-soluble derivative 2 as calibrator The immunochromatographic assay was conducted using a nitrocellulose-based test strip as described in detail in U.S. Pat. No. 5,770,458. Mylar backed large pore size nitrocellulose (8–12 micron) was cut into pieces of 15 cm in length and 5 cm in width. A solution of the benzodiazepine-BSA conjugate 7 (about 5 mg/mL) and anti-BSA monoclonal antibody (about 2 mg/mL), both in 50 mM potassium phosphate buffer pH 7.5, were loaded onto IVEK CORP. (North Springfield, Vt.) […] 2000™ system. The solutions were dispensed at the rate 1 μl/cm onto nitrocellulose at a distance of 2 cm and 1 cm, respectively, from the 15 cm side. The nitrocellulose segments were allowed to dry for about 30 min. at 37° C., and then were blocked with polyvinyl alcohol (PVA, m.w. 13,000–23,000) solution in 20 mM TRIS, pH 8, for 30 min. at room temperature. The segments were then rinsed in water and dried.
The same nitrocellulose as described above in this example was used as a separate membrane for microparticles (top membrane). The construction of the two-membrane strip configuration was carried out as described in detail in U.S. Pat. No. 5,770,458. In brief, the top membrane was blocked and washed using the same protocol as the main membrane. The top membrane containing the appropriate amount of microparticles was laminated to the main membrane with ADHESIVE […] INC. (Glen Rock, Pa.) adhesive mylar and the segment was then cut into 5 mm wide strips. The sample pad and sink pad were placed respectively at the beginning and terminal ends of the strips. Cellulose from BIORAD LABORATORIES (Hercules, Calif.) (gel blotter) was used for both the sample receiving pads and the sink pads. The calibration curve was obtained by adding solutions containing predetermined amounts of drug in urine to the sample receiving pad or by dipping the sample receiving pad of the membrane strip in the solutions. Various predetermined concentrations of water-soluble derivative 2 were used to prepare the standards in urine. The signal strength is determined as follows: 2.5 to 3.0=dark blue, 1.5 to 2.0-medium blue, 1.0=light blue, 0.5=barely perceivable color and 0=colorless. When the strip read colorless, a complete inhibition is achieved and the sample is indicated to contain 200 ng/mL of the drug used to prepare the “standards”.

[4] = in water; 'it is believed'
[5] = test system: antibody of ABUSCREEN ONLINE Benzodiazepines assay; details: ONLINE immunoassay
Excerpt: ABUSCREEN ONLINE reagents and Calibration Pack were obtained from ROCHE DIAGNOSTICS CORPORATION, INC. […] ABUSCREEN ONLINE Benzodiazepines assay was run either on a ROCHE MIRA analyzer in a semi-quantitative mode, or using a ROCHE COBAS INTEGRA 700 analyzer in a semi-quantitative mode, according to the I manufacturer's instructions.

[6] = Heat stress stability of urine standard solutions, GC/MS quantification; format: physicochemical; details: for change of concentration in urine: 45° C. and 55° C.
Protocol: as §1, §2
The standard solutions were stored at various temperatures, including 4° C., 45° C. and 55° C., and tested at different time intervals.

[7] = Protocol: Water-soluble derivative 2 was spiked in certified drug-free human urine 100 ng/mL) and the resulting solution was divided into two portions: one was stored at 4° C. and the other stressed at 45° C. After three months, both solutions were analyzed for the concentration of water-soluble derivative 2 by the following procedure. A volume (between 2.5 to 10 mL) of the urine solutions was passed through an affinity column packed with anti-benzodiazepines antiserum-coated latex beads (0.8 μm). After it was washed with a 50 mM, pH 6.1 MES (4-morpholineethane […]) buffer, the column was eluted with methanol. The methanol eluant was then evaporated and the residue reconstituted in 404 μL of MES buffer. […] The column was eluted with a gradient generated between a 50 mM, pH 6.8 ammonium acetate buffer and acetonitrile (Table C).
[8] = urine pH 7.4, higher-concentration standard
[9] = urine pH 7.4, lower-concentration standard
[10] = urine pH 6.4, higher-concentration standard
[11] = urine pH 6.4, lower-concentration standard
[12] = urine, scale 2.5 to 3.0 dark blue, 1.5 to 2.0 medium blue, 1.0 light blue, 0.5 barely perceivable, 0 colorless

## CCN(CC)CCN1C(=O)CN=C(c2ccccc2F)c2cc(Cl)ccc21 [Fluazepam]
[1]
  solubility in water: only slight solubility in water

## O=C1CN=C(c2ccccc2)c2cc(Cl)ccc2N1 [Nordiazepam, reference compound]
[2]; [8]
  ONLINE assay concentration, 4° C., Day 0: 271 ng/mL
  ONLINE assay concentration, 4° C., Week 2: 272 ng/mL
  ONLINE assay concentration, 4° C., Week 4: 252 ng/mL
  ONLINE assay concentration, 45° C., Day 0: 271 ng/mL
[2]; [9]
  ONLINE assay concentration, 4° C., Day 0: 139 ng/mL
  ONLINE assay concentration, 4° C., Week 2: 140 ng/mL
  ONLINE assay concentration, 4° C., Week 4: 134 ng/mL
  ONLINE assay concentration, 45° C., Day 0: 139 ng/mL

## O=C1CN=C(c2ccccc2F)c2cc(Cl)ccc2N1CCNS(=O)(=O)O [Water-soluble derivative 2, 1-(2-Sulfamidoethyl)-2′-fluoro-7-chloro-1,4-benzodiazepine]
[2]
  stability in urine by ONLINE assay: stable for the evaluated time and temperatures
[2]; listed as water-soluble benzodiazepine reference standard 2
  stability in urine by ONLINE assay: does not change significantly
[2]; [10]
  ONLINE assay concentration, 4° C., Day 0: 191 ng/mL
  ONLINE assay concentration, 4° C., Week 2: 191 ng/mL
  ONLINE assay concentration, 4° C., Week 4: 193 ng/mL
  ONLINE assay concentration, 45° C., Day 0: 191 ng/mL
  ONLINE assay concentration, 45° C., Week 2: 200 ng/mL
  ONLINE assay concentration, 45° C., Week 4: 209 ng/mL
[2]; [11]
  ONLINE assay concentration, 4° C., Day 0: 99 ng/mL
  ONLINE assay concentration, 4° C., Week 2: 97 ng/mL
  ONLINE assay concentration, 4° C., Week 4: 106 ng/mL
  ONLINE assay concentration, 45° C., Day 0: 99 ng/mL
  ONLINE assay concentration, 45° C., Week 2: 101 ng/mL
  ONLINE assay concentration, 45° C., Week 4: 109 ng/mL
[2]; [8]
  ONLINE assay concentration, 4° C., Day 0: 188 ng/mL
  ONLINE assay concentration, 4° C., Week 2: 183 ng/mL
  ONLINE assay concentration, 4° C., Week 4: 189 ng/mL
  ONLINE assay concentration, 45° C., Day 0: 188 ng/mL
  ONLINE assay concentration, 45° C., Week 2: 179 ng/mL
  ONLINE assay concentration, 45° C., Week 4: 192 ng/mL
[2]; [9]
  ONLINE assay concentration, 4° C., Day 0: 102 ng/mL
  ONLINE assay concentration, 4° C., Week 2: 92 ng/mL
  ONLINE assay concentration, 4° C., Week 4: 99 ng/mL
  ONLINE assay concentration, 45° C., Day 0: 102 ng/mL
  ONLINE assay concentration, 45° C., Week 2: 95 ng/mL
  ONLINE assay concentration, 45° C., Week 4: 98 ng/mL
[3]; immunochromatographic assay
  cross-reactivity to both Oxazepam and Nordiazepam: approximately 70%
[3]; [12]
  signal strength at 50 ng/mL standard: 2.50 and 2.75
  signal strength at 100 ng/mL standard: 2.00
  signal strength at 200 ng/mL standard: 0
  signal strength at 400 ng/mL standard: 0
[4]
  aqueous solubility: more than 2 mg/mL
[5]
  cross-reactivity to both Oxazepam and Nordiazepam: approximately 70%
[6]; human urine standard solution, starting concentration
  GC/MS concentration, Day 0: Day 0 = 171 ng/mL
[6]; human urine, 5 months, 4° C., Day 0 = 171 ng/mL
  GC/MS value at 5 months, 4° C.: 147 ng/mL
[6]; human urine, 5 months, 45° C., Day 0 = 171 ng/mL
  GC/MS value at 5 months, 45° C.: 150 ng/mL
[6]; human urine, 5 months, 55° C., Day 0 = 171 ng/mL
  GC/MS value at 5 months, 55° C.: 145 ng/mL
[6]; human urine, two weeks, 4° C.
  GC/MS concentration after storage at 4° C.: 191 ng/mL
[6]; human urine, two weeks, 45° C.
  GC/MS concentration after storage at 45° C.: 178 ng/mL
[6]; human urine, two weeks, 55° C.
  GC/MS concentration after storage at 55° C.: 185 ng/mL
[6]; two weeks, 4° C.
  change of concentration in urine: stable at all temperatures
[6]; two weeks, 4° C., listed as water-soluble benzodiazepine reference standard 2
  change of concentration in urine: does not change significantly
[7]; human urine, three months, 45° C. vs 4° C., duplicate runs
  relative stability of the stressed sample (single extraction and HPLC runs): 96% and 106%
[7]; human urine, three months, area count at 45° C. divided by that at 4° C., average of duplicates
  relative stability of the stressed sample (average): 101%
[7]; urine, storage as long as 3 months
  stability at 45° C. relative to 4° C.: no decrease in stability
